Counter-ions that a name gives are not always drawn.
These compounds were tested against T1, Human ATX protein (Homo sapiens, UniProt Q13822) (assay: ATX biochemical assay (FRET, FS-3 substrate)). Conditions: FRET assay, FS-3 2 μM, ATX 1.0 μg/mL, 30 minutes preincubation, 2 hours reaction at room temperature; read-out: IC50.
T1 construct: made in house
Method in brief: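 FRET read-out: cleavage of FS-3 (2 μM final) unquenches fluorescein, measured at 485/538 nm after 2 h at room temperature. Before substrate addition, in-house-expressed human autotaxin (1.0 μg/mL) sat with compound for 30 min in pH 7.4 Tris/NaCl/KCl/CaCl2/MgCl2 buffer containing fatty acid free-BSA at 1 mg/mL.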

Structure (SMILES) | IC50
COC(=O)N1CCCC(CC(=O)N2CCc3c(C(F)(F)F)nn(Cc4ccc(F)cc4)c3C2)C1 (stereo not drawn) [Example 16-1, Methyl 3-(2-(1-(4-fluorobenzyl)-3-(trifluoromethyl)-4,5-dihydro-1H-pyrazolo[3,4-c]pyridin-6(7H)-yl)-2-oxoethyl)piperidine-1-carboxylate] | ≤ 100 nM
O=C(O)c1ccc(CC(=O)N2CCc3c(C(F)(F)F)nn(Cc4ccc(Cl)cc4F)c3C2)cc1 [Example 5-5, 4-(2-(1-(4-Chloro-2-fluorobenzyl)-3-(trifluoromethyl)-4,5-dihydro-1H-pyrazolo[3,4-c]pyridin-6(7H)-yl)-2-oxoethyl)benzoic acid] | ≤ 100 nM
N#CC1CN(CC(=O)N2CCc3c(C(F)(F)F)nn(Cc4ccc(F)cc4)c3C2)C1 [Example 12-12, 1-(2-(1-(4-Fluorobenzyl)-3-(trifluoromethyl)-4,5-dihydro-1H-pyrazolo[3,4-c]pyridin-6(7H)-yl)-2-oxoethyl)azetidine-3-carbonitrile TFA salt] | ≤ 100 nM
O=C(C1CCn2cncc2C1)N1CCc2c(C(F)(F)F)nn(Cc3ccc(F)cc3)c2C1 (stereo not drawn) [Example 1-20, (1-(4-Fluorobenzyl)-3-(trifluoromethyl)-4,5-dihydro-1H-pyrazolo[3,4-c]pyridin-6(7H)-yl)(5,6,7,8-tetrahydroimidazo[1,5-a]pyridin-7-yl)methanone] | > 10000 nM
CCOC(=O)C1CCC(CC(=O)N2CCc3c(C(F)(F)F)nn(Cc4ccc(F)cc4)c3C2)CC1 (stereo not drawn) [Example 1-1, Ethyl 4-(2-(1-(4-fluorobenzyl)-3-(trifluoromethyl)-4,5-dihydro-1H-pyrazolo[3,4-c]pyridin-6 (7H)-yl)-2-oxoethyl)cyclohexanecarboxylate] | ≤ 100 nM
O=C(CC1CCN(c2ncccn2)CC1)N1CCc2c(C(F)(F)F)nn(Cc3ccc(F)cc3)c2C1 [Example 18-1, 1-(1-(4-Fluorobenzyl)-3-(trifluoromethyl)-4,5-dihydro-1H-pyrazolo[3,4-c]pyridin-6(7H)-yl)-2-(1-(pyrimidin-2-yl)piperidin-4-yl)ethanone TFA salt] | ≤ 100 nM
CCOC(=O)[C@H]1CC[C@H](CC(=O)N2CCc3c(-c4ccccc4)nn(Cc4ccc(F)cc4)c3C2)CC1 [Example 1-44, trans-Ethyl 4-(2-(1-(4-fluorobenzyl)-3-phenyl-4,5-dihydro-1H-pyrazolo[3,4-c]pyridin-6(7H)-yl)-2-oxoethyl)cyclohexanecarboxylate] | ≤ 100 nM
N#Cc1nn(Cc2ccc(F)cc2)c2c1CCN(C(=O)C[C@H]1CC[C@H](C(=O)O)CC1)C2 [Example 5-46, trans-4-(2-(3-Cyano-1-(4-fluorobenzyl)-4,5-dihydro-1H-pyrazolo[3,4-c]pyridin-6(7H)-yl)-2-oxoethyl)cyclohexanecarboxylic acid] | ≤ 100 nM
CC1(C)C(CC(=O)N2CCc3c(C(F)(F)F)nn(Cc4ccc(F)cc4)c3C2)CC1C(=O)O (mixture of isomers) [Example 6-15, 3-(2-(1-(4-Fluorobenzyl)-3-(trifluoromethyl)-4,5-dihydro-1H-pyrazolo[3,4-c]pyridin-6(7H)-yl)-2-oxoethyl)-2,2-dimethylcyclobutanecarboxylic acid] | ≤ 100 nM
CC(=O)N1CCCC(CC(=O)N2CCc3c(C(F)(F)F)nn(Cc4ccc(F)cc4)c3C2)C1 (stereo not drawn) [Example 17-1] | ≤ 100 nM
O=C(O)CCCC(=O)N1CCc2c(C(F)(F)F)nn(Cc3ccc(Cl)cc3F)c2C1 [Example 14-2, 5-(1-(4-Chloro-2-fluorobenzyl)-3-(trifluoromethyl)-4,5-dihydro-1H-pyrazolo[3,4-c]pyridin-6(7H)-yl)-5-oxopentanoic acid] | ≤ 100 nM
N[C@H]1CC[C@H](CC(=O)N2CCc3c(C(F)(F)F)nn(Cc4ccc(Cl)cc4F)c3C2)CC1 [Example 9-19, 2-(trans-4-aminocyclohexyl)-1-(1-(4-chloro-2-fluorobenzyl)-3-(trifluoromethyl)-4,5-dihydro-1H-pyrazolo[3,4-c]pyridin-6(7H)-yl)ethanone TFA salt] | ≤ 100 nM
CCOC(=O)[C@H]1CC[C@H](CC(=O)N2CCc3c(C(F)(F)F)nn(Cc4cncs4)c3C2)CC1 [Example 1-47, trans-Ethyl 4-(2-oxo-2-(1-(thiazol-5-ylmethyl)-3-(trifluoromethyl)-4,5-dihydro-1H-pyrazolo[3,4-c]pyridin-6(7H)-yl)ethyl)cyclohexanecarboxylate] | ≤ 100 nM
CC(C(=O)N1CCc2c(C(F)(F)F)nn(Cc3ccc(Cl)cc3F)c2C1)N1CCC(C(=O)O)CC1 (stereo not drawn) [Example 13-8, 1-(1-(1-(4-Chloro-2-fluorobenzyl)-3-(trifluoromethyl)-4,5-dihydro-1H-pyrazolo[3,4-c]pyridin-6(7H)-yl)-1-oxopropan-2-yl)piperidine-4-carboxylic acid] | ≤ 100 nM
O=C(CC1CCNC(C(F)(F)F)C1)N1CCc2c(C(F)(F)F)nn(Cc3ccc(F)cc3)c2C1 (stereo not drawn) [Example 9-13, 1-(1-(4-Fluorobenzyl)-3-(trifluoromethyl)-4,5-dihydro-1H-pyrazolo[3,4-c]pyridin-6(7H)-yl)-2-(2-(trifluoromethyl)piperidin-4-yl)ethanone TFA salt] | ≤ 100 nM
O=C(Cc1ccncc1)N1CCc2c(C(F)(F)F)nn(Cc3ccc(Cl)cc3F)c2C1 [Example 1-7, 1-(1-(4-Chloro-2-fluorobenzyl)-3-(trifluoromethyl)-4,5-dihydro-1H-pyrazolo[3,4-c]pyridin-6(7H)-yl)-2-(pyridin-4-yl)ethanone] | > 10000 nM
O=C(O)C1CC2(CC(CC(=O)N3CCc4c(C(F)(F)F)nn(Cc5ccc(F)cc5)c4C3)C2)C1 (stereo not drawn) [Example 6-13, 6-(2-(1-(4-Fluorobenzyl)-3-(trifluoromethyl)-4,5-dihydro-1H-pyrazolo[3,4-c]pyridin-6(7H)-yl)-2-oxoethyl)spiro[3.3]heptane-2-carboxylic acid] | ≤ 100 nM
O=C(C[C@H]1CC[C@H](C(=O)O)CC1)N1CCc2c(-c3ccccc3)nn(Cc3ccc(F)cc3)c2C1 [Example 5-39, trans-4-(2-(1-(4-Fluorobenzyl)-3-phenyl-4,5-dihydro-1H-pyrazolo[3,4-c]pyridin-6(7H)-yl)-2-oxoethyl)cyclohexanecarboxylic acid] | ≤ 100 nM
O=C(O)[C@H]1CC(CC(=O)N2CCc3c(C(F)(F)F)nn(Cc4ccc(Cl)cc4F)c3C2)CN1 (stereo partly drawn) [Example 9-14, (2R)-4-(2-(1-(4-Chloro-2-fluorobenzyl)-3-(trifluoromethyl)-4,5-dihydro-1H-pyrazolo[3,4-c]pyridin-6(7H)-yl)-2-oxoethyl)pyrrolidine-2-carboxylic acid TFA salt] | ≤ 100 nM
O=C(C[C@H]1CC[C@@H](C(=O)O)CC1)N1CCc2c(C(F)(F)F)nn(Cc3cc(F)cc(Cl)c3)c2C1 [Example 5-4, cis-4-(2-(1-(3-chloro-5-fluorobenzyl)-3-(trifluoromethyl)-4,5-dihydro-1H-pyrazolo[3,4-c]pyridin-6(7H)-yl)-2-oxoethyl)cyclohexanecarboxylic acid] | ≤ 100 nM

Same assay, conditions: IC50, FRET assay, FS-3 2 μM, ATX 1.0 μg/mL, 30 minutes preincubation, 2 hours reaction at room temperature

Structure (SMILES) | IC50
O=C(O)C1CC2CCC(C1)N2CC(=O)N1CCc2c(C(F)(F)F)nn(Cc3ccc(F)cc3)c2C1 (stereo not drawn) [Example 13-5, 8-(2-(1-(4-Fluorobenzyl)-3-(trifluoromethyl)-4,5-dihydro-1H-pyrazolo[3,4-c]pyridin-6(7H)-yl)-2-oxoethyl)-8-azabicyclo[3.2.1]octane-3-carboxylic acid] | ≤ 100 nM

Reference: US10144732B2 (BIOGEN MA INC., priority 2014, dated 2018)
